What is called IC50 is the concentration needed to halve the response being measured.

Square brackets hold non-standard residues; d marks the D form. Peptide text beside a SMILES is read from it. * marks the point of attachment. Alaψ(CH2NMeCH2CH2OH) = C[C@@H](CN(C)CCO)N*; Decanoyl(2R-Me) = CCCCCCCC[C@@H](C)C(=O)*; Cha = N[C@@H](CC1CCCCC1)C(=O)O; Aib = CC(C)(N)C(=O)O Bounds are passed on as bounds.

Data on 4 molecules can be found in paper PMC9866366 (Pharmaceutics, 2023).

Data set [1] has as its system BxPC-3 cells. As to the kind of experiment: PrestoBlue cell viability assay, comparative cytotoxicity assay under 'low glucose'. Type of data set: cell-based, human. Particulars: 24 h exposure; for IC50: 'low glucose' RPMI 1640 (no glucose added), 50.8 pM to 1 µM, three independent experiments each in technical duplicate; for AUC, PrestoBlue, BxPC-3 / Emax @ 1 µM, PrestoBlue, BxPC-3: 'low glucose', three independent experiments in duplicate; for AUC, PrestoBlue, BxPC-3: area under viability-concentration curve, baseline y = 0; for Emax @ 1 µM, PrestoBlue, BxPC-3: response (percent viability) at highest concentration 1 µM. An excerpt: (§1) Endpoint fluorescence was quantified as described above.

The test system of data set [2] is PANC-1 cells. Described as above. Particulars: 24 h exposure; for IC50: 'low glucose' DMEM (no glucose added), 457 pM to 9 µM, three independent experiments each in technical duplicate; for AUC, PrestoBlue, PANC-1 / Emax @ 9 µM, PrestoBlue, PANC-1: 'low glucose', three independent experiments in duplicate; for AUC, PrestoBlue, PANC-1: area under viability-concentration curve, baseline y = 0; for Emax @ 9 µM, PrestoBlue, PANC-1: response (percent viability) at highest concentration 9 µM. It is filed as cell-based, human.
Text: as §1

The subject of data set [3] is BxPC-3 cells. The experiment in a line: CyQUANT Direct cell proliferation assay, comparative cytotoxicity assay under 'low glucose'. It is filed as cell-based, human. Particulars: 24 h exposure; for IC50: 'low glucose' RPMI 1640 (no glucose added), 50.8 pM to 1 µM, three independent experiments each in technical duplicate; for AUC, CyQUANT Direct, BxPC-3 / Emax @ 1 µM, CyQUANT Direct, BxPC-3: 'low glucose', three independent experiments in duplicate; for AUC, CyQUANT Direct, BxPC-3: area under viability-concentration curve, baseline y = 0; for Emax @ 1 µM, CyQUANT Direct, BxPC-3: response (percent viability) at highest concentration 1 µM.
Text: as §1

Data set [4] concerns PANC-1 cells. The description is as above. Type of data set: cell-based, human. Particulars: 24 h exposure; for IC50: 'low glucose' DMEM (no glucose added), 457 pM to 9 µM, three independent experiments each in technical duplicate; for AUC, CyQUANT Direct, PANC-1 / Emax @ 9 µM, CyQUANT Direct, PANC-1: 'low glucose', three independent experiments in duplicate; for AUC, CyQUANT Direct, PANC-1: area under viability-concentration curve, baseline y = 0; for Emax @ 9 µM, CyQUANT Direct, PANC-1: response (percent viability) at highest concentration 9 µM.
Text: as §1

For data set [5], the system named is BxPC-3 cells. Particulars: 24 h exposure, medium with or without 5 mM glucose, up to 1 µM. Here is the method: (§2) Cells were seeded at a density of 25,000 cells/well (BxPC-3) and 30,000 cells/well (PANC-1) in Nunc MicroWell 96-Well Black Optical-Bottom Plates with Polymer Base (total volume: 100 µL). Cells were first incubated overnight at 37 °C, 5% CO2 to permit adherence, after which the medium in each well was aspirated, briefly washed once with 100 µL/well of PBS (pH 7.4) and replaced with 100 µL of either RPMI 1640 (BxPC-3, #11879020) or DMEM (PANC-1, #11966025) supplemented with or without 5 mM glucose to create the ‘normal glucose’ and ‘low glucose’ media, respectively. This 5 mM glucose concentration was selected to reflect the physiological concentration of glucose in plasma. Each well was then exposed to the peptides in duplicate at a concentration range of 50.8 pM to 1 µM (BxPC-3) or 457 pM to 9 µM (PANC-1) for 24 h (threefold serial dilution in the corresponding ‘normal glucose’ or ‘low glucose’ media, ten steps). Endpoint fluorescence was quantified as described above.
(§3) Blank correction (wells containing medium only) was first performed on the raw fluorescence–concentration data from the plate reader. Cell viability was then calculated as a percentage by normalizing to the fluorescence of the wells containing the lowest drug concentration (50.8 pM for BxPC-3, 457 pM for PANC-1). The resulting data from three independent experiments (each in technical duplicate) was then plotted on GraphPad Prism 9 and analyzed using the built-in ‘[Inhibitor] vs. response—Variable slope (four parameters)’ equation.

For data set [6], the system named is PANC-1 cells. Particulars: 24 h exposure, medium with or without 5 mM glucose, up to 9 µM. How it is done: as §2, §3
Data set [7] relates to BxPC-3 cells. The experiment in a line: Initial cytotoxicity assay (PrestoBlue and CyQUANT Direct Confirmation Assay), 25 mM glucose. It is filed as cell-based, human. Particulars: 3-day (72 h) incubation, RPMI-1640 with 25 mM glucose, up to highest concentration tested of 1 µM, both viability assays. Here is the method:
The CyQUANT™ Direct Cell Proliferation Assay was subsequently performed by mixing the CyQUANT™ Direct nucleic acid stain, CyQUANT™ Direct background suppressor I, and PBS (pH 7.4) as per the vendor instructions, then adding 100 µL of this mixture into each well. The plate was returned into the incubator for a further 1 h, and the endpoint fluorescence bottom-read at the Ex/Em wavelength of 485/538 nm on the SpectraMax iD3 plate reader. Blank wells (medium only) and two negative controls—(1) cells + medium, (2) cells + medium + 0.3% v/v DMSO (equivalent to 1 µM peptide)—were set up in the plate for each experiment.

The subject of data set [8] is DU-145 human prostate cancer cells. Particulars: coculture model with prostate stromal cells (PrSC); cited from earlier work. An excerpt: (§4) Over the last decade, research in our group has focused on the synthesis and biological evaluation of aminolipopeptides as new generation anticancer therapeutics. They are structurally defined by the α,α-dialkylated amino acid 2-aminoisobutyric acid (Aib) and an acylated N-terminus. A subset of this family, containing the non-natural building block 2-amino-6-hydroxy-4-methyl-8-oxodecanoic acid (AHMOD), has provided two promising leads in leucinostatin A (1) and culicinin D (2).

Data set [9] has as its system BxPC-3. Particulars: MTT assay; only when cultured under minimal glucose in the growth medium; cited from earlier work. From the text: (§5) Intriguingly, there exists a precedence for this observation: the recent discovery of the leucinostatin Y by Kawada’s group was also reported alongside a comparative […] (MTT) assay against the parent peptide leucinostatin A (1) on the human PDAC cell lines PANC-1, BxPC-3, PSN-1, and PK-8 [21]. […] On this basis, we opted to re-evaluate the cytotoxicity of both trichoderins (3) and (4) against BxPC-3 and ...
(In general: Formazan colour is commonly taken as a measure of viable cells.)

For data set [10], the system named is PANC-1. Particulars: MTT assay; only when cultured under minimal glucose in the growth medium; cited from earlier work.
Text: as §5

In data set [11] the test system is PK-8. Particulars: MTT assay; only when cultured under minimal glucose in the growth medium; cited from earlier work.
Text: as §5

The test system of data set [12] is PSN-1. Particulars: MTT assay; only when cultured under minimal glucose in the growth medium; cited from earlier work.
Text: as §5

For data set [13], the system named is MDA-MB-468 human breast cancer cells. Particulars: via inhibition of the mTOR signaling pathway; cited from earlier work.
Text: as §4

On to `CC[C@H](C)[C@H](NC(=O)C(C)(C)NC(=O)C(C)(C)NC(=O)[C@H](CC1CCCCC1)NC(=O)[C@@H]1CCCN1)C(=O)N[C@H](C(=O)NC(C)(C)C(=O)NC(C)(C)C(=O)N[C@@H](C)CN(C)CCO)C(C)C` [(12)] (H-P[Cha][Aib][Aib]IV[Aib][Aib]-{Alaψ(CH2NMeCH2CH2OH)}), for which, in data set [1], the IC50 is above 1000 nM; the “AUC, PrestoBlue, BxPC-3” value is on record as 10.2 ×10^−5; the “Emax @ 1 µM, PrestoBlue, BxPC-3” value worked out at 104.0%. In addition, in data set [2], the IC50 was above 9000 nM; the “AUC, PrestoBlue, PANC-1” value is 90.6 ×10^−5; the “Emax @ 9 µM, PrestoBlue, PANC-1” value turned out to be 101.0%. In data set [3], the half-inhibitory concentration (IC50) was above 1000 nM; the “AUC, CyQUANT Direct, BxPC-3” value is 11 ×10^−5; the “Emax @ 1 µM, CyQUANT Direct, BxPC-3” value came out at 115.0%. In addition, in data set [4], the IC50 was above 9000 nM; the “AUC, CyQUANT Direct, PANC-1” value is 92.6 ×10^−5; the “Emax @ 9 µM, CyQUANT Direct, PANC-1” value is listed as 107.0%. Further, in data set [5], the “Cytotoxicity against BxPC-3 under 'low glucose' vs 'normal glucose' (in words)” value is given as “inactivity”. The “Cytotoxicity against PANC-1 under 'low glucose' vs 'normal glucose' (in words)” value in data set [6] was “inactivity”.
`CCCCCCCC[C@@H](C)C(=O)N1CCC[C@H]1C(=O)N[C@@H](CC1CCCCC1)C(=O)NC(C)(C)C(=O)NC(C)(C)C(=O)N[C@H](C(=O)N[C@H](C(=O)NC(C)(C)C(=O)NC(C)(C)C(=O)N[C@@H](C)CN(C)CCO)C(C)C)[C@@H](C)CC` [(4)] ({Decanoyl(2R-Me)}-P[Cha][Aib][Aib]IV[Aib][Aib]-{Alaψ(CH2NMeCH2CH2OH)}): in data set [1], half-maximal inhibition (IC50) was put at 400 nM; the “AUC, PrestoBlue, BxPC-3” value is recorded as 5.1 ×10^−5; the “Emax @ 1 µM, PrestoBlue, BxPC-3” value is reported as 1.7%. For the same molecule, in data set [2], the IC50 amounted to 500 nM; the “AUC, PrestoBlue, PANC-1” value is listed as 23.1 ×10^−5; the “Emax @ 9 µM, PrestoBlue, PANC-1” value worked out at 2.3%. Further, in [3], half-maximal inhibition (IC50) required 400 nM; the “AUC, CyQUANT Direct, BxPC-3” value is reported as 5.4 ×10^−5; the “Emax @ 1 µM, CyQUANT Direct, BxPC-3” value came to 21.0%. In addition, in [4], it took 1300 nM to reach half-maximal inhibition (IC50); the “AUC, CyQUANT Direct, PANC-1” value is 39.6 ×10^−5; the “Emax @ 9 µM, CyQUANT Direct, PANC-1” value is reported as 29.2%. The “Inhibition of proliferation of BxPC-3 cells (in words)” value in data set [7] was “only partially inhibited the proliferation”. In data set [5], the “Cytotoxicity against BxPC-3 under 'low glucose' vs 'normal glucose' (in words)” value is given as “selective toxicity under the ‘low glucose’ condition”. For the same molecule, the “Cytotoxicity against PANC-1 under 'low glucose' vs 'normal glucose' (in words)” value in data set [6] was “selective toxicity under the ‘low glucose’ condition”.
leucinostatin A [(1)]: the “Cytotoxicity against DU-145 (in words)” value in data set [8] is listed as “cytotoxic”. The “Cytotoxicity against BxPC-3 (in words)” value in data set [9] is recorded as “selectively cytotoxic”. Further, the “Cytotoxicity against PANC-1 (in words)” value in data set [10] was “selectively cytotoxic”. In addition, the “Cytotoxicity against PK-8 (in words)” value in data set [11] is given as “selectively cytotoxic”. The “Cytotoxicity against PSN-1 (in words)” value in data set [12] is listed as “selectively cytotoxic”.
Consider culicinin D [(2)], for which, in data set [13], the “Toxicity against MDA-MB-468 (in words)” value is given as “selectively toxic”.
